The text below walks through data of PubChem BioAssay (NCI).

Test in all cases: NCI anticancer screen, dose series, 48 h
Assay [1] relates to COLO 205 colon.
For assay [2], the system named is SK-MEL-28 melanoma.
In assay [3] the test system is SK-MEL-2 melanoma.
In assay [4] the test system is TK-10 renal.
In assay [5] the test system is SF-539 CNS.
In assay [6] the test system is PC-3 prostate.
Assay [7] deals with HOP-92 NSCLC.
Assay [8] relates to MDA-MB-435.
For assay [9], the system named is CAKI-1 renal.
The test system of assay [10] is HT29 colon.

“And” between values parts separate entries of the source, which are not always exact repeats. Equal values may be shown once.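 Compound exposure: 48 hours, 5 concentrations, 96-well plates. GI50: concentration for 50% inhibition of growth. TGI is the concentration that stops growth completely.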

On to `Oc1c(Cl)cc(Cl)c(Cl)c1CNCCNCc1c(O)c(Cl)cc(Cl)c1Cl`, for which the GI50 in [1] was 1.09 µM; in assay [2] it was 1.02 µM; in [3], 3.4 µM; in assay [4], 2.02 µM; in [5], 0.439 µM; in [6], 1.92 µM. The GI50 was 1.66 µM in [7], 1.58 µM in [8], 1.09 µM in assay [9] and 5.83 µM in assay [10]. Also, the TGI in assay [1] is more than 50 µM; in [2] it was 8.64 µM; in assay [3], 14.1 µM; in assay [4] it was 11.2 µM; in assay [5] it was 5.32 µM; in assay [6] it was 11.1 µM. The TGI in assay [7] is 10.3 µM; in assay [8], 9.87 µM; in [9], 9.23 µM; in [10] it was more than 50 µM.
In the case of `CCc1ccc(Oc2c(-c3ccc(OCc4ccc(Cl)cc4)cc3O)n[nH]c2C(F)(F)F)cc1`, the GI50 in assay [1] was 1.71 µM; in assay [2] it was 1.82 µM; in assay [3] it was 1.75 µM; in assay [4] it was 2 µM; in [5], 1.96 µM; in [6], 1.88 µM. Also, the GI50 in [7] is 2.03 µM; in assay [8], 1.8 µM; in assay [9], 2.29 µM; in [10], 2 µM. The TGI in assay [1] was 3.27 µM; in [2], 3.37 µM; in assay [3], 3.74 µM; in [4], 4.75 µM; in assay [5] it was 4.41 µM; in assay [6], 3.86 µM. The TGI in assay [7] was found to be 4.77 µM; in assay [8], 3.49 µM; in assay [9], 5.95 µM; in assay [10], 3.95 µM.
Take `Cc1nn(CNc2ccccc2C(F)(F)F)c(=S)n1/N=C/c1cccc2cccnc12`: the GI50 in assay [1] is more than 100 µM; in assay [2], more than 100 µM; in assay [3], more than 100 µM; in assay [4] it was more than 100 µM; in assay [5], more than 100 µM; in [6], 79.1 µM. In addition, the results for the GI50 in [7], in assay [8] and in assay [9] were 74.7 µM, 22.7 µM and more than 100 µM, respectively. Also, the TGI in assay [1], in assay [2], in [3], in assay [4], in assay [5] and in assay [6] was more than 100 µM each time. In addition, the TGI is more than 100 µM in assay [7], 55 µM in assay [8] and more than 100 µM in [9].
With `Fc1ccc(-c2c(-c3ccncc3)nc3n2CCS3)cc1`, the GI50 in [1], in assay [2], in [3], in assay [4], in [5] and in [6] was more than 25 µM throughout. Further, the GI50 in [7] was more than 16.9 µM; in [8] it was more than 25 µM; in assay [9], more than 25 µM; in [10] it was more than 25 µM. Further, the TGI in assay [1], in assay [2], in [3], in assay [4], in [5] and in assay [6] was more than 25 µM each time. In addition, the TGI in assay [7], in [8], in assay [9] and in assay [10] was more than 25 µM each time.
On to `COc1ccccc1Nc1cc(O)c2c(=O)cc(-c3ccccc3)oc2c1`, for which the GI50 in assay [1] is 9.92 µM; in assay [2], 3.64 µM; in assay [3], 5.62 µM; in [4], 10.4 µM; in assay [5], 2.73 µM; in [6], 5.13 µM. Besides, the GI50 is 3.76 µM in [7], 0.36 µM in assay [8], 4.24 µM in assay [9] and 3.64 µM in assay [10]. The TGI in assay [1] is more than 100 µM; in [2], 25.8 µM; in assay [3], 34.2 µM; in [4], 28.6 µM; in assay [5], 10.4 µM; in assay [6] it was 41.6 µM. For the same compound, the TGI in assay [7] was 23.7 µM; in assay [8] it was 2.03 µM; in assay [9], 20.3 µM; in [10] it was more than 100 µM.
Consider `CN[C@H]1CN(c2ccc3c(=O)c(C(=O)O)cn(-c4nccs4)c3n2)C[C@@H]1OC`, for which the GI50 was 1.21 µM in assay [1]; 1.31 µM in assay [2]; 1.51 µM in assay [3]; 1.1 µM in assay [4]; 0.592 µM in assay [5]; 1.65 µM in assay [6]. In addition, the GI50 is 0.176 µM in [7], 1.29 µM in [8], 0.271 µM in assay [9] and 1.04 µM in assay [10]. Also, the TGI in assay [1] was determined as 2.66 µM; in assay [2], 3.01 µM; in assay [3], 3.56 µM; in assay [4], 4.13 µM; in assay [5], 4.14 µM; in assay [6], 19.4 µM. Besides, the TGI stood at 0.938 µM in [7], 3.51 µM in assay [8], 2.24 µM in assay [9] and 4.2 µM in assay [10].
On to `CNC(=O)c1ccc(N2C(=S)N(c3cnc(C#N)c(C(F)(F)F)c3)C(=O)C23CCC3)cc1F`, for which the GI50 in assay [1], in [2], in assay [3], in assay [4], in assay [5] and in [6] was more than 100 µM in each case. Moreover, the GI50 in assay [7] was more than 86.7 µM; in assay [8], more than 100 µM; in [9] it was more than 100 µM; in assay [10], more than 100 µM. Besides, the TGI in [1], in [2], in assay [3], in assay [4], in assay [5] and in [6] was more than 100 µM throughout. The TGI in assay [7], in [8], in assay [9] and in assay [10] was more than 100 µM each time.
`Clc1c(Cl)[n+](Cc2ccc3ccccc3c2)cn1Cc1ccc2ccccc2c1`: the GI50 in assay [1] was 1.13 µM; in assay [2] it was 1.63 µM; in [3], 1.67 µM; in assay [4], 1.58 µM; in assay [5], 1.57 µM; in assay [6] it was 1.46 µM. Moreover, the GI50 in assay [7] was 0.733 µM; in assay [8], 1.24 µM; in assay [10] it was 0.57 µM. Moreover, the TGI in [1] was 2.57 µM; in assay [2] it was 3.04 µM; in [3], 3.24 µM; in [4], 3.11 µM; in [5] it was 2.98 µM; in assay [6] it was 2.87 µM. The TGI in assay [7] came to 2.14 µM; in [8] it was 2.64 µM; in assay [10], 2.01 µM.
Take `Cc1cc2c(C(=O)NC[C@H](C)c3ccccc3)c(O)c(O)cc2c(O)c1-c1c(C)cc2c(C(=O)NC[C@H](C)c3ccccc3)c(O)c(O)cc2c1O`: the GI50 in assay [1] is 0.711 µM; in assay [2] it was 0.437 µM; in assay [3], 0.596 µM; in assay [4], 0.298 µM; in assay [5], 0.242 µM; in [6], 0.342 µM. Also, the GI50 was 0.276 µM in [7], 0.232 µM in assay [8], 0.375 µM in assay [9] and 0.355 µM in assay [10]. In addition, the TGI in assay [1] stood at 5.83 µM; in [2] it was 4.41 µM; in assay [3], 4.23 µM; in [4] it was 10.6 µM; in [5], 1.02 µM; in assay [6] it was 1.46 µM. For the same compound, the TGI stood at 1 µM in assay [7], 4.79 µM in assay [8], 10 µM in [9] and 11 µM in assay [10].
In the case of `CCc1nc(N)nc(N)c1-c1ccc(Cl)c([N+](=O)[O-])c1`, the TGI in [1] is 55.5 µM; in [2] it was more than 100 µM; in assay [3] it was 90.5 µM; in [4], more than 100 µM; in assay [5], 51.4 µM; in [6], more than 100 µM. Further, the TGI in assay [7] is more than 87.1 µM; in assay [8] it was more than 100 µM; in [9] it was more than 100 µM; in [10] it was more than 100 µM.
As for `COC(=O)[C@@H]1c2cc3c(c(O)c2[C@@H](OC2OC(C)C(OC)C(C)(OC)C2OC)C[C@]1(C)O)C(=O)c1c(O)cc2c(c1C3=O)O[C@H]1O[C@]2(C)[C@H](O)[C@@H](N(C)C)[C@@H]1O` (some centres undefined), the TGI in assay [1] was 0.0351 µM; in assay [2], 0.0699 µM and 0.0273 µM; in assay [3], 0.0134 µM and 0.0177 µM; in [5], 0.16 µM and 0.0302 µM; in assay [6], 0.297 µM; in assay [7] it was 0.0546 µM and 0.418 µM. Further, the TGI in assay [8] came to 0.188 µM; in assay [10], 10.1 µM. Further, in assay [4], the GI50 is 0.0386 µM.
As for `O=C(O)c1cc(-c2ccc3cc4c(cc3c2)OCO4)nc2ccccc12`, the TGI in assay [1], in assay [2], in assay [3], in [4], in assay [5] and in assay [6] was more than 100 µM in each case. Further, the values for the TGI in assay [7], in [8] and in assay [10] were 87.9 µM, more than 100 µM and more than 100 µM, respectively.
